For 15 compounds, IC50 and inhibition results are on record in ChEMBL document CHEMBL1134896, “Antileishmanial dinitroaniline sulfonamides with activity against parasite tubulin” (Bioorg Med Chem Lett, 2002).

A value given as a limit tells only on which side of the number the result lay.

Experiment [1] deals with Leishmania donovani. Kind of experiment: Inhibitory activity against Leishmania donovani promastigotes. It is filed as functional, organism-based.
Experiment [2] deals with Leishmania donovani. Kind of experiment: Inhibitory activity against Leishmania donovani amastigotes. It is filed as functional, organism-based.
Experiment [3] has as its system Leishmania sp. As to the kind of experiment: Percentage inhibition against Leishmania tubulin in vitro was determined at 20 uM. The class given is functional.

Usually IC50 stands for the concentration that inhibits the measured activity by half. A low value points to greater potency. The term inhibition denotes the drop in the measured response relative to a control, in per cent. Turning to `CCCNS(=O)(=O)c1cc([N+](=O)[O-])c(N(CCC)CCC)c([N+](=O)[O-])c1`, the results for the IC50 in experiment [1] and in experiment [2] were 56 µM and 56.9 µM, respectively. Moreover, the inhibition at 20 µM in experiment [3] was 97%.
Consider `CCCNc1c([N+](=O)[O-])cc(S(N)(=O)=O)cc1[N+](=O)[O-]`, for which inhibition in experiment [1] was half-maximal at 67 µM (IC50). Also, the inhibition at 20 µM in experiment [3] amounted to 43%.
As for `CCCN(CCC)c1c([N+](=O)[O-])cc(C(N)=O)cc1[N+](=O)[O-]`, the IC50 in experiment [1] amounted to 76.4 µM. Besides, the inhibition at 20 µM in experiment [3] worked out at 34%.
For the compound `CCCN(CCC)c1c([N+](=O)[O-])cc(S(=O)(=O)Nc2ccccc2)cc1[N+](=O)[O-]`, the IC50 came to 14.7 µM in experiment [1] and 5.41 µM in experiment [2]. In addition, the inhibition at 20 µM in experiment [3] worked out at 108%.
Regarding `NS(=O)(=O)c1cc([N+](=O)[O-])c(N2CCOCC2)c([N+](=O)[O-])c1`, the half-inhibitory concentration (IC50) in experiment [1] is more than 100 µM. The inhibition at 20 µM in experiment [3] was found to be 21%.
In the case of `CCCCN(CCCC)c1c([N+](=O)[O-])cc(S(N)(=O)=O)cc1[N+](=O)[O-]`, the values for the IC50 in experiment [1] and in experiment [2] were 17.8 µM and 20.1 µM, respectively. In addition, the inhibition at 20 µM in experiment [3] stood at 89%.
The matching figures for `CCCCCCN(CCCCCC)c1c([N+](=O)[O-])cc(S(N)(=O)=O)cc1[N+](=O)[O-]`: 12.2 µM, 11.7 µM and 48%.
In turn, `CCCN(CCC)c1c([N+](=O)[O-])cc(C#N)cc1[N+](=O)[O-]` returned an IC50 in experiment [1] of more than 100 µM. The inhibition at 20 µM in experiment [3] came to 25%.
The like results for `CCCN(CCC)c1ccc(S(N)(=O)=O)cc1[N+](=O)[O-]` were, in that order, 89.8 µM and 19%.
The like results for `CCN(CC)c1c([N+](=O)[O-])cc(S(N)(=O)=O)cc1[N+](=O)[O-]` were, in that order, 69.3 µM and 58%.
On to `CCCN(CCC)c1c([N+](=O)[O-])cc(C(=N)NO)cc1[N+](=O)[O-]`, for which the half-inhibitory concentration (IC50) in experiment [1] is more than 100 µM. The inhibition at 20 µM in experiment [3] stood at 35%.
Turning to `CCCCCN(CCCCC)c1c([N+](=O)[O-])cc(S(N)(=O)=O)cc1[N+](=O)[O-]`, the IC50 in experiment [1] is 8.02 µM; in experiment [2] it was 9 µM. In addition, the inhibition at 20 µM in experiment [3] was 95%.
For `NS(=O)(=O)c1cc([N+](=O)[O-])c(N2CCCC2)c([N+](=O)[O-])c1`, in experiment [1], the IC50 was determined as 97.1 µM. In experiment [3], the inhibition at 20 µM was 57%.
Take `CCCN(CCC)c1c([N+](=O)[O-])cc(S(N)(=O)=O)cc1[N+](=O)[O-]` [ORYZALIN]: the IC50 in experiment [1] came out at 44.1 µM; in experiment [2], 72.5 µM. Besides, the inhibition at 20 µM in experiment [3] is 54%.
For `N=C(N)c1ccc(OCCCCCOc2ccc(C(=N)N)cc2)cc1` [PENTAMIDINE], the IC50 in experiment [1] is 1.61 µM; in experiment [2], 2 µM.
